Source: paper PMC10355216, “The C-terminal tail of CSNAP attenuates the CSN complex” (Life Science Alliance, 2023)

Experiments:
[1] = tested on: CSN^ΔCSNAP complex; assay: Peptide array screen of C-CSNAP peptides with rCSN^ΔCSNAP; assay type: binding; conditions: average of 5 experiments;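 also: Array-printed peptides incubated with 0.5 µM CSN^ΔCSNAP, bound complex detected by anti-CSN3 antibody plus HRP-linked secondary, spot intensity expressed relative to the parent reference peptide spot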
[2] = tested on: recombinant CSN complex; assay: Peptide array screen of C-CSNAP peptides with recombinant CSN (rCSN^WT); assay type: binding; conditions: for Average fold change, intensities as fold of C-CSNAP (A1): rCSN^WT on INTAVIS Celluspots array, anti-CSN3 and HRP secondary antibody, average of six replicates (three independent experiments in duplicates); for Average fold change: peptide array with rCSN, average of 3 experiments, left and right (n = 6), fold of C-CSNAP (A1);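 as to all read-outs here: densitometric signal of CSN bound to each synthesized peptide spot, with an antibody-only array lacking CSN run to exclude non-specific binding, higher values meaning stronger binding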
Experimental: To generate an optimized C-CSNAP peptide, we used the peptide array methodology. The array was designed to screen for the optimal peptide length, sequence, and stability (Fig 3A). A recombinant CSN complex was expressed, purified, and screened for binding to the peptide array by using an anti-CSN3 antibody. To rule out non-specific binding of the probing antibody, a control experiment was carried out without the addition of the CSN complex (Fig 3A right panel).
C-CSNAP peptide and its derivatives were synthesized on a microarray. The array was blocked and incubated with or without the COP9 signalosome complex (CSN) and probed using an anti-CSN3 antibody and HRP-conjugated secondary antibody. To assess non-specific binding of the antibodies to the array, anti-CSN3 and anti-GAR–HRP were used without the addition of the CSN. Signal intensity of each spot was measured and normalized to the intensity of the spot of C-CSNAP (A1). Measured values for each spot were averaged from six arrays and plotted with SEM. […] (A) A representative image of the peptide array (left) and the background (right). (B) Elongation of the C-terminal 16 amino acids (green) with one residue at a time based on the full-length sequence. […] (F) Single D-amino acid substitution at various positions.
Intensity values are normalized to the intensity of the 16AA C-CSNAP peptide (A1) on each array from three independent experiments in duplicates, and averages from the six replicates are calculated with SEM.
Optimization of C-CSNAP sequence for enhanced binding to recombinant CSN^ΔCSNAP was screened by printing the modified sequences of CSNAP or C-CSNAP (Phe to Trp, Asp to Glu, Ala screen, D-amino acid screen, N-α-methylation, and Aib incorporation on INTAVIS Celluspots array [2 × 384spots]). The array was blocked with 5% skim milk in TBS-0.5% Tween 20 (TBS-T) for 4 h at room temperature, washed three times in TBS-T, and then incubated with 0.5 μM CSN^ΔCSNAP in 5% milk–TBS-T. Bound CSN^ΔCSNAP was visualized by incubating with anti-CSN3 (ab79698) antibody (1:10,000, overnight) and goat-anti-rabbit-HRP secondary antibody (1:10,000, 1 h).

[3] = peptide array, rCSN^ΔCSNAP, left and right spots
[4] = peptide array with rCSN^ΔCSNAP, left and right (n = 10), fold of C-CSNAP (A1)

Row | Sequence | Average fold change [1, 3] | Average fold change, intensities as fold of C-CSNAP (A1) [2] | Average fold change [2] [fold] | Average fold change [1, 4] [fold]
1 | DFFNDFEDLFDDDEIQ [D 9, C-CSNAP, Asp to Glu substitution D55E] | 1.0696 fold of C-CSNAP (A1) | 1.0265 fold of C-CSNAP (A1) |  | 
2 | DFFNDFEDLFEDEDIQ [E 2, C-CSNAP, Asp to Glu substitution D52,54E] | 0.9955 fold of C-CSNAP (A1) | 0.8694 fold of C-CSNAP (A1) |  | 
3 | DFFNEFEELFEDEDIQ [D46,49,52,54E] | 0.9254 fold of C-CSNAP (A1) |  | 0.5934 | 
4 | DFFNDFEELFDEDDIQ [Position D22, C-CSNAP, Asp to Glu substitution D49,53E] | 1.3252 fold of C-CSNAP (A1) | 0.6642 fold of C-CSNAP (A1) |  | 
5 | EFFNDFEDLFDDDEIQ [Position D15, C-CSNAP, Asp to Glu substitution D42,55E] | 1.0098 fold of C-CSNAP (A1) | 0.7777 fold of C-CSNAP (A1) |  | 
6 | DFFNDFEDLFEEDEIQ [D52,53,55E] | 1.3267 fold of C-CSNAP (A1) |  | 0.6917 | 
7 | DFWNDFEDLFDDDDIQ [Position C13, C-CSNAP, Phe to Trp substitution F44W] | 1.2883 fold of C-CSNAP (A1) | 0.8173 fold of C-CSNAP (A1) |  | 
8 | EFFNEFEDLFDDDDIQ [Position D10, C-CSNAP, Asp to Glu substitution D42,46E] | 1.0622 fold of C-CSNAP (A1) | 0.8862 fold of C-CSNAP (A1) |  | 
9 | EFFNDFEELFEEEEIQ [D42,49,52,53,54,55E] | 0.9207 fold of C-CSNAP (A1) |  | 0.6132 | 
10 | DFFNDFEDLFEEEEIQ [D52,53,54,55E] | 1.3020 fold of C-CSNAP (A1) |  | 0.7255 | 
11 | EFFNEFEDLFDEDDIQ [E 6, C-CSNAP, Asp to Glu substitution D42,46,53E] | 0.9657 fold of C-CSNAP (A1) | 0.7001 fold of C-CSNAP (A1) |  | 
12 | EFFNEFEELFDDEDIQ [D42,46,49,54E] | 1.0465 fold of C-CSNAP (A1) |  | 0.5426 | 
13 | GAGPYVDLDEAGGSTGLLMDLAANEKAVHADFFNDFEDLFDDDDIQ [B 7, CSNAP residues 12-57] |  | 1.1696 fold of C-CSNAP (A1) |  | 1.0720
14 | DAFNDFEDLFDDDDIQ [Position B21, C-CSNAP, Ala substitution F43A] |  | 0.8509 fold of C-CSNAP (A1) |  | 1.1048
15 | LLMDLAANEKAVHADFFNDFEDLFDDDDIQ [Position A15, CSNAP residues 28-57] |  | 0.9771 fold of C-CSNAP (A1) |  | 1.2034
16 | DFFNDFEDLFEDEEIQ [D52,53,56E] | 1.1721 fold of C-CSNAP (A1) |  | 0.6027 | 
17 | DFFNEFEDLFDDDDIQ [D 4, C-CSNAP, Asp to Glu substitution D46E] | 1.0457 fold of C-CSNAP (A1) | 1.0255 fold of C-CSNAP (A1) |  | 
18 | VHADFFNDFEDLFDDDDIQ [A 4, CSNAP residues 39-57] |  | 1.1190 fold of C-CSNAP (A1) |  | 0.9552
19 | DFFNEFEELFEEEDIQ [D46,49,52,53,54E] | 1.3745 fold of C-CSNAP (A1) |  | 0.5724 | 
20 | DFFNEFEELFEDEEIQ [D46,49,52,54,55E] | 1.2301 fold of C-CSNAP (A1) |  | 0.5968 | 
